Values of other authors, collected in patent US20050136109A1, “Extended release tablet formulations of venlafaxine” (Wyeth, priority 2003, published 2005).
Where a name gives a salt, the structure may show the parent alone.

Settings: plural daily dosing regimen, immediate release tablets

Vomiting, patients experiencing: about seventeen
nausea, patients experiencing: about forty five
SMILES: COc1ccc(C(CN(C)C)C2(O)CCCCC2)cc1 (centres unmarked) [venlafaxine hydrochloride, 1-[2-(dimethylamino)-1-(4-methoxyphenyl)ethyl]-cyclo-hexanol]
